Measurements published in article PMC12157126, “Saturation kinetics and specificity of transporters for L-arginine and asymmetric dimethylarginine (ADMA) at the blood-brain and blood-CSF barriers” (PLOS One, 2025).
Where “and” joins values, the source holds several entries; their conditions need not be identical. Identical values can stand only once. Like-named read-outs stand apart in the source and are kept apart here.

Assays:
[1] = system: blood-brain and blood-CSF barriers; assay: In situ brain/choroid plexus perfusion with capillary depletion: CNS uptake of [3H]-arginine in absence and presence of transporter inhibitors; type: in vivo, adult male BALB/c mice; conditions: 4 mM BCH or 500 μM α-methyl-D,L-tryptophan; for effect on [3H]-arginine uptake: majority of brain regions sampled
Protocol: (§1) The in situ brain/choroid plexus perfusion method was performed as previously described and will only be briefly detailed here. […] At the end of the perfusion period a CSF sample was taken from the cisterna magna, the animal was decapitated, the brain removed and samples taken under a Leica S4E L2 stereomicroscope (Leica; Buckinghamshire, UK). […] The circumventricular organs (CVOs) including the choroid plexus, pituitary gland and pineal gland were also sampled. Brain samples were also taken for capillary depletion analysis.
(§2) Both the physiological capillary depletion buffer and dextran solution were maintained at 4 °C to halt any cell metabolism and transport processes, and to reduce any cellular or protein damage due to heat generated from the homogenisation process. The whole brain homogenate was then taken for dextran density centrifugation (5,400 x g) and 4 °C to produce an endothelial cell-enriched pellet and supernatant containing brain parenchyma.
(§3) The transporter proteins these inhibitors target are listed in S1 Table in S1 File.
(§4) % change=RTissue−RInhibition /RTissue× 100 (2)

[2] = system: blood-brain and blood-CSF barriers; assay: In situ brain/choroid plexus perfusion with capillary depletion: CNS uptake of [3H]-ADMA in absence and presence of transporter inhibitors; conditions: for % inhibition of [3H]-ADMA uptake: L-homoarginine 20 mM, BCH 4 mM, L-phenylalanine 200 μM, L-leucine 5 mM, harmaline 2 mM; for RBrain, [3H]-ADMA alone: 10 min perfusion, mean±SEM; for RBrain, [3H]-ADMA alone / uptake of [3H]-ADMA: [14C]-sucrose corrected; for uptake of [3H]-ADMA: S14 Fig
Protocol: as §1, §2, §3, §4

[3] = system: blood-brain and blood-CSF barriers; assay: Self-inhibition experiments: [3H]-ADMA uptake with 0.5-500 μM unlabelled ADMA and kinetic constants (Km, Vmax, Kd); type: in vivo, adult male BALB/c mice; conditions: for Km: read-out: Km (half-saturation constant) of [3H]-ADMA influx
Description: At the end of the perfusion period a CSF sample was taken from the cisterna magna, the animal was decapitated, the brain removed and samples taken under a Leica S4E L2 stereomicroscope (Leica; Buckinghamshire, UK). The samples included the frontal cortex, caudate nucleus, occipital cortex, hippocampus, hypothalamus, thalamus, pons and cerebellum. The circumventricular organs (CVOs) including the choroid plexus, pituitary gland and pineal gland were also sampled. Brain samples were also taken for capillary depletion analysis.
A series of single-time point experiments involved varying the unlabelled concentration of ADMA in the artificial plasma and measuring the [^3H]-ADMA uptake into the brain regions, capillary depletion samples, CVOs and CSF after 10 min of perfusion. […] This enabled calculation of the kinetic constants; Vmax (the maximal influx rate of the saturable component), Km (the half-saturation constant) and Kd (the constant of non-saturable diffusion).
In the case where the uptake of the radiolabelled test amino acid is examined in the presence of various unlabelled concentrations of the same test solute, Kin, can be defined as in equation 4:
Kin= Vmax/Km+ Cpl+ Kd (5)
Unidirectional ADMA flux (Jin) into the brain (nmol.min^-1.g^-1) and CSF (nmol.min^-1.ml^-1) was determined using equations 6 and 7:
Jin=VmaxCpl/Km+ Cpl+ KdCpl (8)
This constant of non-saturable diffusion was then used to calculate a non-saturable flux which could be subtracted from the total flux to determine the saturable flux. […] In some cases, there was no measurable non-saturable component and so estimates of Vmax and Km were obtained from plots of total flux, which was equal to the saturable flux.

[4] = CSF, choroid plexus and pituitary gland
[5] = homogenate, supernatant, pellet
[6] = brain and choroid plexus (up to), system B0,+ inhibitors
[7] = brain homogenate or supernatant
[8] = caudate nucleus, α-methyl-D,L-tryptophan 500 μM
[9] = occipital cortex, α-methyl-D,L-tryptophan 500 μM
[10] = pineal gland, α-methyl-D,L-tryptophan 500 μM

## CC(N)(Cc1c[nH]c2ccccc12)C(=O)O (racemic) [α-methyl-D,L-tryptophan, reference compound]
[1]; [4]
  effect on [3H]-arginine distribution: no statistically significant effect
[1]; [5]
  effect on [3H]-arginine distribution: no significant effect
[1]
  effect on [3H]-arginine uptake: did not significantly affect
[2]; [6]
  inhibition of [3H]-ADMA uptake: up to 50.0%
[2]; [7]
  effect on [3H]-ADMA uptake: did not significantly affect
[2]; [8]
  % inhibition of [3H]-ADMA uptake: 49.1%
[2]; frontal cortex, α-methyl-D,L-tryptophan 500 μM
  % inhibition of [3H]-ADMA uptake: 48.0%
[2]; [9]
  % inhibition of [3H]-ADMA uptake: 45.5%
[2]; [10]
  % inhibition of [3H]-ADMA uptake: 80.6%

## NC1(C(=O)O)CC2CCC1C2 (stereo not drawn) [BCH, 2-amino-endo-bicyclo[2.2.1]heptane-2-carboxylic acid, reference compound]
[1]; [4]
  effect on [3H]-arginine distribution: no statistically significant effect
[1]; [5]
  effect on [3H]-arginine distribution: no significant effect
[1]
  effect on [3H]-arginine uptake: did not significantly affect
[2]; [6]
  inhibition of [3H]-ADMA uptake: up to 50.0%
[2]; [7]
  effect on [3H]-ADMA uptake: did not significantly affect
[2]; [8]
  % inhibition of [3H]-ADMA uptake: 37.5%
[2]; choroid plexus
  % inhibition of [3H]-ADMA uptake: 50.0%
[2]; hippocampus, α-methyl-D,L-tryptophan 500 μM
  % inhibition of [3H]-ADMA uptake: 36.6%
[2]; hypothalamus, α-methyl-D,L-tryptophan 500 μM
  % inhibition of [3H]-ADMA uptake: 36.8%
[2]; [9]
  % inhibition of [3H]-ADMA uptake: 34.2%
[2]; [10]
  % inhibition of [3H]-ADMA uptake: 65.6%
[2]; pituitary gland
  % inhibition of [3H]-ADMA uptake: 61.5%

## COc1ccc2c3c([nH]c2c1)C(C)=NCC3 [Harmaline, harmaline, reference compound]
[2]; brain and choroid plexus
  effect on [3H]-ADMA uptake: significantly inhibited
[2]; [7]
  effect on [3H]-ADMA uptake: did not significantly affect

## N[C@@H](Cc1ccccc1)C(=O)O [L-phenylalanine, reference compound]
[2]; phenylalanine, some regions of the brain and the choroid plexus (up to)
  inhibition of [3H]-ADMA uptake: up to 66.4%

## CN(C)C(N)=NCCC[C@H](N)C(=O)O [[^3H]-ADMA, asymmetric dimethylarginine]
[2]; 10 minutes
  uptake into pellet, times lower than into choroid plexus: 124.2 times
[2]; CSF
  RBrain, [3H]-ADMA alone: 26.72±8.84 ml.100g^-1
[2]; caudate nucleus
  RBrain, [3H]-ADMA alone: 24.07±2.92 ml.100g^-1
[2]; cerebellum
  RBrain, [3H]-ADMA alone: 17.65±1.52 (n=4) ml.100g^-1
[2]; choroid plexus
  RBrain, [3H]-ADMA alone: 260.9±42.45 ml.100g^-1
[2]; choroid plexus, 10 minutes
  uptake of [3H]-ADMA: 260.85 ± 42.45 ml.100g^-1
[2]; frontal cortex
  RBrain, [3H]-ADMA alone: 24.94±3.50 ml.100g^-1
[2]; frontal cortex, 10 minutes
  uptake of [3H]-ADMA: 24.94 ± 3.50 ml.100g^-1
[2]; hippocampus
  RBrain, [3H]-ADMA alone: 21.74±1.75 ml.100g^-1
[2]; homogenate (capillary depletion)
  RBrain, [3H]-ADMA alone: 17.70±3.10 (n=4) ml.100g^-1
[2]; hypothalamus
  RBrain, [3H]-ADMA alone: 30.42 ± 2.98 ml.100g^-1
[2]; occipital cortex
  RBrain, [3H]-ADMA alone: 22.52±1.65 ml.100g^-1
[2]; pellet (capillary depletion)
  RBrain, [3H]-ADMA alone: 2.62±0.88 (n=4) ml.100g^-1
[2]; pineal gland
  RBrain, [3H]-ADMA alone: 194.1±48.46 ml.100g^-1
[2]; pituitary gland
  RBrain, [3H]-ADMA alone: 182.9±32.28 ml.100g^-1
[2]; pons
  RBrain, [3H]-ADMA alone: 24.64±3.44 ml.100g^-1
[2]; supernatant (capillary depletion)
  RBrain, [3H]-ADMA alone: 10.03 ± 1.06 (n=4) ml.100g^-1
[2]; thalamus
  RBrain, [3H]-ADMA alone: 21.09±1.74 ml.100g^-1
[3]; CSF
  non-saturable component of [3H]-ADMA flux: no non-saturable component
[3]; CSF, from total flux
  Vmax (maximal influx rate of the saturable component) of [3H]-ADMA: 2.07 ± 0.38 nmol/min/g and 2.067 ± 0.38 nmol/min/g
  Km: 30.6 ± 25.4 µM
[3]; caudate nucleus
  Kd (constant of non-saturable diffusion) of [3H]-ADMA: 2.82 µL/min/g
  Vmax (maximal influx rate of the saturable component) of [3H]-ADMA: 0.423 ± 0.061 nmol/min/g
[3]; caudate nucleus, saturable flux, sucrose space increased at 500 µM ADMA
  Km: 25.2 ± 16.6 µM
[3]; cerebellum
  Kd (constant of non-saturable diffusion) of [3H]-ADMA: 5.20 µL/min/g
  Vmax (maximal influx rate of the saturable component) of [3H]-ADMA: 0.235 ± 0.011 nmol/min/g
[3]; cerebellum, saturable flux, sucrose space increased at 500 µM ADMA
  Km: 24.7 ± 5.32 µM
[3]; choroid plexuses, pituitary gland and pineal gland, 10 minutes
  RTissue: > 100%
[3]; frontal cortex
  Vmax (maximal influx rate of the saturable component) of [3H]-ADMA: 0.307 ± 0.017 nmol/min/g
[3]; frontal cortex, saturable flux
  Km: 29.1 ± 7.19 µM
[3]; frontal cortex, slope of total flux at 100 and 500 μM
  Kd (constant of non-saturable diffusion) of [3H]-ADMA: 4.40 µL/min/g
[3]; hippocampus
  Kd (constant of non-saturable diffusion) of [3H]-ADMA: 3.23 µL/min/g
  Vmax (maximal influx rate of the saturable component) of [3H]-ADMA: 0.24 ± 0.02 nmol/min/g
[3]; hippocampus, saturable flux, sucrose space increased at 500 µM ADMA
  Km: 15.8 ± 6.86 µM
[3]; homogenate
  Kd (constant of non-saturable diffusion) of [3H]-ADMA: 3.34 µL/min/g
  Vmax (maximal influx rate of the saturable component) of [3H]-ADMA: 0.155 ± 0.013 nmol/min/g
[3]; homogenate, saturable flux
  Km: 13.6 ± 5.26 µM
[3]; hypothalamus
  Kd (constant of non-saturable diffusion) of [3H]-ADMA: 5.18 µL/min/g
  Vmax (maximal influx rate of the saturable component) of [3H]-ADMA: 0.482 ± 0.049 nmol/min/g
[3]; hypothalamus, saturable flux
  Km: 23.2 ± 10.8 µM
[3]; occipital cortex
  Kd (constant of non-saturable diffusion) of [3H]-ADMA: 4.65 µL/min/g
  Vmax (maximal influx rate of the saturable component) of [3H]-ADMA: 0.321 ± 0.034 nmol/min/g
[3]; occipital cortex, saturable flux, sucrose space increased at 500 µM ADMA
  Km: 25.9 ± 12.6 µM
[3]; pellet
  Kd (constant of non-saturable diffusion) of [3H]-ADMA: 0.38 µL/min/g
  Vmax (maximal influx rate of the saturable component) of [3H]-ADMA: 0.071 ± 0.008 nmol/min/g
[3]; pellet, saturable flux
  Km: 34 ± 16.8 µM
[3]; pons
  Kd (constant of non-saturable diffusion) of [3H]-ADMA: 3.62 µL/min/g
  Vmax (maximal influx rate of the saturable component) of [3H]-ADMA: 0.325 ± 0.043 nmol/min/g
[3]; pons, saturable flux, sucrose space increased at 500 µM ADMA
  Km: 18.2 ± 10.8 µM
[3]; supernatant
  Kd (constant of non-saturable diffusion) of [3H]-ADMA: 2.35 µL/min/g
  Vmax (maximal influx rate of the saturable component) of [3H]-ADMA: 0.208 ± 0.036 nmol/min/g
[3]; supernatant, saturable flux
  Km: 68.5 ± 44.4 µM
[3]; thalamus
  Kd (constant of non-saturable diffusion) of [3H]-ADMA: 4.33 µL/min/g
  Vmax (maximal influx rate of the saturable component) of [3H]-ADMA: 0.278 ± 0.033 nmol/min/g
[3]; thalamus, saturable flux, sucrose space increased at 500 µM ADMA
  Km: 18.5 ± 9.89 µM
